Each structure is given as a SMILES string.

The values below come from EP4628084A1, “NAPHTHALENE-DERIVATIVE-BASED THERAPEUTIC DRUG FOR OPHTHA[…]” (Kyoto University, priority 2022, dated 2024).

Holding throughout (type): physicochemical
Data set [1] is described as follows: Solubility of KUS121 in water. The note with it: at 25°C.
Data set [2] is described as follows: Preliminary experiment: soluble concentration of KUS121 in normal PBS buffer. Here is the method: The maximum dose of KUS121 to the vitreous body of the eye is 50 µg/eye, and the liquid volume that can be administered into the vitreous body is preferably about 100 µL or less. […] In view of these premises and the above-mentioned problems, the present inventors have extensively studied to design an injection formulation of KUS121 in a normal PBS buffer that can be administered into the vitreous body, wherein about 50 µg of KUS121 is dissolved in a normal PBS buffer (about 100 µL), i.e., a formulation that allows a concentration setting of 0.5 mg/mL and matches the osmotic pressure in the vitreous body. As a result, the present inventors have conducted the following trials and then have found the following things: i.e., the present inventors first prepared 1 mL of 0.1 mg/mL KUS121 aqueous solution by dissolving KUS121 in water for injection and then adding a PBS buffer solution with about twice the concentration of normal to the KUS121 solution, in which the PBS concentration is 1/5 of the normal concentration. Then, the prepared KUS121 aqueous solution was lyophilized, and 200 µL (0.2 mL) of water for injection [200 µL (0.2 mL) corresponds to 1/5 the volume before the lyophilization] was added to the lyophilized product. […]

Data set [3] is described as follows: Solubility of KUS121 in PBS buffer at different temperatures (filtrate quantified by HPLC). The note with it: for solubility of KUS121: detection limit about 1 µg/mL, quantification limit 5 µg/mL; for solubility: PBS buffer solution, aqueous buffer, thermodynamic from solid. Here is the method: A PBS buffer solution comprising 1.6 mg of sodium chloride, 0.229 mg of disodium hydrogen phosphate, 0.04 mg of potassium dihydrogen phosphate, and 0.04 mg of potassium chloride per mL of the solution was prepared, and the temperature of the PBS buffer solution was adjusted to 5°C, 25°C, 40°C, 50°C, and 60°C. KUS121 was added little by little to each solution at the different temperatures and stirred. After stirring for a sufficient time period from the time when some undissolved material appeared, the solution was filtered. As a result of quantifying the filtrate using HPLC, the solubility of KUS121 at each temperature was as follows (detection limit: about 1 µg/mL, quantification limit: 5 µg/mL) .

`Cc1cc(F)ccc1-c1ccc(N=Nc2cc(S(=O)(=O)[O-])c3ccccc3c2N)cn1.O.O.[Na+]` [KUS121, Sodium 4-amino-3-[6-(4-fluoro-2-methylphenyl)pyridin-3-ylazo]naphthalene-1-sulfonate dihydrate]: the solubility in data set [1] is about 2800 µg/mL; in data set [2] (normal PBS buffer solution, aqueous buffer, normal PBS buffer, room temperature, preliminary experiment), at most 10 µg/mL; in data set [3] (40°C), 7 µg/mL; in data set [3] (50°C), 47 µg/mL; in data set [3] (60°C) it was 132 µg/mL. Also, the “solubility of KUS121 in PBS buffer” value in data set [2] (PBS buffer, result in words) was “extremely low”. The “solubility of KUS121” value in data set [3] (5°C) and in data set [3] (25°C) was “below detection limit” throughout.
